Key:
[1] = test system: mouse hippocampal slice cultures; assay: Kainic acid neurodegeneration in hippocampal slice cultures (propidium iodide); type: cell-based
Procedure: We employed a standard technique of ex vivo experimentation to determine the efficacy of 2MeGlu, 2MeGln, and 4APA to prevent neurodegeneration. Mouse hippocampal slice cultures were prepared and then exposed to one of the three test compounds at either 5 or 50 μM for one hour. Then media was changed to contain either 2 or 5 μM kanic acid (KA) for 24 hr. […] After 24, the amount of neurodegeneration was assayed with propidium iodide staining. Increasing the dose of KA led to greater neurodegeneration at 5 μM than at 2 μM.

[2] = biological target: T1, GluN2A (Homo sapiens, UniProt Q12879); assay: FLIPR functional assay, HEK 293 cells (agonist/PAM/antagonist); type: cell-based; settings: top concentration 100 μM, read-out: IC50, functional antagonist receptor assay
T1 construct: host or cells: HEK 293 (stably expressing)
T1 sequence (Q12879 23-1464, other chains not shown): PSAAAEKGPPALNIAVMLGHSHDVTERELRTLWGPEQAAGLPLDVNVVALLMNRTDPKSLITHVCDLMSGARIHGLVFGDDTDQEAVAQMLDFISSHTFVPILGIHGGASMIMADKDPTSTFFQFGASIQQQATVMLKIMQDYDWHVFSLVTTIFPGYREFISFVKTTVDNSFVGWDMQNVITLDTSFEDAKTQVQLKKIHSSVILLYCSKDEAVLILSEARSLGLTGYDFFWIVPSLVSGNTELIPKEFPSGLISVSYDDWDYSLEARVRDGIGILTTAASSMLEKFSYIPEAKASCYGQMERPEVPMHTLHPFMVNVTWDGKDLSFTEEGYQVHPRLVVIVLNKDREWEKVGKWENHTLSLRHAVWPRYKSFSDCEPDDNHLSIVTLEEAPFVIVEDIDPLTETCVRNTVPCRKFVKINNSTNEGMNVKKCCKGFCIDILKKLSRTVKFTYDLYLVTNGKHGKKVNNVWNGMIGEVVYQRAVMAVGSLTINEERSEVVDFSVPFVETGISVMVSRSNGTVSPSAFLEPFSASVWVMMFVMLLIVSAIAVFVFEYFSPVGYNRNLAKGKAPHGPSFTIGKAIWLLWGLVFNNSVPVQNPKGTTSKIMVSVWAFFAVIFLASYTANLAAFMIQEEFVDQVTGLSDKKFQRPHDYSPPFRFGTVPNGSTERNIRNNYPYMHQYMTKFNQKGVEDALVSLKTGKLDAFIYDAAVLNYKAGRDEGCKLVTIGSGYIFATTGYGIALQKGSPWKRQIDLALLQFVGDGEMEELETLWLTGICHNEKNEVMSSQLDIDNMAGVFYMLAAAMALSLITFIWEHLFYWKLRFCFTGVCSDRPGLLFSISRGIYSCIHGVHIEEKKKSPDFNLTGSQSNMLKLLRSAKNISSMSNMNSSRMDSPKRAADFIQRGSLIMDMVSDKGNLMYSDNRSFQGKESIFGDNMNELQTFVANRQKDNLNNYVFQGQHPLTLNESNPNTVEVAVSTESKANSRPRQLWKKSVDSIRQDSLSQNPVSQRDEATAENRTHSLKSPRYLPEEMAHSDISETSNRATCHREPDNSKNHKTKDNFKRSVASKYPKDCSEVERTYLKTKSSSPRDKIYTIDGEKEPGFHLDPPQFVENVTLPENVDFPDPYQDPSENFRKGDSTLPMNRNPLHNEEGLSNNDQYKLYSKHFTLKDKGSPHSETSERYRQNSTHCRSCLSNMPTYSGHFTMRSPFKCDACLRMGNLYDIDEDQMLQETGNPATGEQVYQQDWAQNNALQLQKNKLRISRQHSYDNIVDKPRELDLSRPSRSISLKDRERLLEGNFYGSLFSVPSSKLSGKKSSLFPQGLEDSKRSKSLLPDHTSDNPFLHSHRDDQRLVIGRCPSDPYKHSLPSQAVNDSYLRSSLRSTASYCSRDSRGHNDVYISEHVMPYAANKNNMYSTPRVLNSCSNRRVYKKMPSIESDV
Procedure: Functional assays of all GABAA, NMDA (GluN2A-GluN2D) and AMPA (GluA2) receptor subunits were performed by SB Drug Discovery as a part of their CNS discovery panel using FLIPR technology. Briefly, receptor-expressing HEK 293 cell lines were incubated in a red membrane potential dye in HEPES:HBSS pH 7.4 buffer and the fluorescence (λex: 488, λex: 510-570) was monitored over time as the test compounds and/or reference compounds were added to the solution. In agonist assay, only test compounds were added. In positive allosteric modulator assay, cells were preincubated with test compounds and then low concentration (approximately EC20) of an appropriate agonist was added. In antagonist assay, cells were preincubated with test compounds and then high concentration (approximately EC80) of an appropriate agonist was added. For GABAA assays, GABA was used as the agonist, picrotoxin was used as the reference antagonist and allopregnanolone was used as the reference positive allosteric modulator (PAM). For NMDA assays, a mixture of glutamate, glycine and CaCl2 was used as the agonist, MK801 was the reference antagonist and pregnenolone sulfate or GNE 9278 were used as reference PAMs. For AMPA assays, glutamate was used as the agonist, CNQX was the reference antagonist and cyclothiazide was used as the reference PAM. All compounds were tested at 7 concentration points in triplicate and EC50/IC50 was determined where applicable. Functional GABAB assay was performed by Eurofins Discovery (Cerep) using Ca^2+-dependent fluorimetry in RBL cells expressing human GABAB (B1/B2) receptor. All compounds were tested at a single concentration of 100 uM in triplicate.
All receptor assays were performed exactly as described in Example 1. Functional assays of all GABAA, NMDA (GluN2A-GluN2D) and AMPA (GluA2) receptor subunits were performed by SB Drug Discovery as a part of their CNS discovery panel using FLIPR technology. All compounds were tested at 7 concentrations in triplicate and EC50/IC50 was determined where applicable. Functional GABAB assay was performed by Eurofins Discovery (Cerep) using Ca^2+-dependent fluorimetry in RBL cells expressing human GABAB (B1/B2) receptor. All compounds were tested at a single concentration of 100 uM in triplicate. Nonspecific AMPA, kainate and NMDA binding assays were performed by Eurofins Discovery (Cerep) using rat cerebral cortex membranes and radiolabeled [^3H]AMPA, [^3H]kainic acid and [^3H]CGP 39653, respectively. All compounds were tested at a single concentration of 100 uM in triplicate. mGluR1, mGluR2, mGluR5 and GABAB binding assays were performed by Eurofins Discovery. All compounds were tested at a single concentration of 100 uM in triplicate.

| Compound | reduction of neurodegeneration ([1]; 50 μM compound, lower dose of KA (2 μM)) | neuroprotection at the higher dose of KA ([1]; 5 or 50 μM compound, 5 μM KA) | IC50 [2] [µM] |
| --- | --- | --- | --- |
| CC(N)(CCC(N)=O)C(=O)O (racemic) [rac-2MeGln, rac-2-methylglutamine] | approximately 50% | Neither dose of 2MeGlu or 2MeGln was neuroprotective | – |
| C[C@@](N)(CCC(=O)O)C(=O)O [(R)-2MeGlu, (R)-2-methylglutamic acid] | – | – | 69 |

Reference: patent US12589087B2, “Enantiomer selective action on neurotransmission” (The Board of Trustees of the Leland Stanford Junior …, priority 2021, dated 2026)
